The structures appear in SMILES notation.

T1 sequence (P15056 whole entry V600E): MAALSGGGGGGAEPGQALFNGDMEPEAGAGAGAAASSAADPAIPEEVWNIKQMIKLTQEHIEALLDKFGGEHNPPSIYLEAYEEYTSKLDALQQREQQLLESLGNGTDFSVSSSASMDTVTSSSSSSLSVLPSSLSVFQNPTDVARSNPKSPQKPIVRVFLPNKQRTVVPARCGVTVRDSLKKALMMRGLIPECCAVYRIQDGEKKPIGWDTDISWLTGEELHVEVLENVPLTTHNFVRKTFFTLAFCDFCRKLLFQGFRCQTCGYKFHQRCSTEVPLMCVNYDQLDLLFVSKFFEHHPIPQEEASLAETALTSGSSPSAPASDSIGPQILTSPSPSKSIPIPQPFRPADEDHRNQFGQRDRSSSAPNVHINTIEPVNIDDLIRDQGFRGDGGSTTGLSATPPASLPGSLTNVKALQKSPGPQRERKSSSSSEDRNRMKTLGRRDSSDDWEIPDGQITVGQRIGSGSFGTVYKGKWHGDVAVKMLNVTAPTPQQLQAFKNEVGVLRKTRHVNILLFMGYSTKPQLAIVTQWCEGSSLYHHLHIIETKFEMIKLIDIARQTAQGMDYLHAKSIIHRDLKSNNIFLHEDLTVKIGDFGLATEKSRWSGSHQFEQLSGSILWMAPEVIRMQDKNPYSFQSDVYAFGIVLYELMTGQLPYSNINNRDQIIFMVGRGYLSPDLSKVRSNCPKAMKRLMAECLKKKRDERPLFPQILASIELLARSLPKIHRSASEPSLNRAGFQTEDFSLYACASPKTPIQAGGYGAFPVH

The test addresses T1, b-Raf(V600E) (Homo sapiens, UniProt P15056, V600E).
T1 construct: made in house
Kind of test: Raf/Mek Amplified Luminescence Proximity Homogeneous Assay (Alpha Screen), b-Raf(V600E). It is filed as biochemical. To be noted: mutant b-Raf(V600E), read-out: mut-b-RAF (IC50 in uM). The method, boiled down: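 Active b-Raf(V600E) (~4 pM) pre-incubated 60 min at room temperature with compound and kinase-dead biotinylated Mek (~10 nM) in Tris pH 7.5, MgCl2, BSA, DTT; ATP-started reaction ran 3 h, EDTA-stopped. Phospho-MEK detected by anti-p-MEK AlphaScreen luminescence; IC50 by non-linear regression.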
For orientation: IC50 means the point on the concentration scale where inhibition reaches its midpoint. Consider `COCC(=O)N[C@@H](C)CNc1nccc(-c2[nH]c(-c3ccc(F)cc3)nc2-c2nc(OC)c(N)nc2C)n1` [Compound 252, (S)-N-(1-(4-(4-(5-amino-6-methoxy-3-methylpyrazin-2-yl)-2-(4-fluorophenyl)-1H-imidazol-5-yl)pyrimidin-2-ylamino)propan-2-yl)-2-methoxyacetamide], for which the half-inhibitory concentration (IC50) turned out to be 2.4 nM.

Regarding `COc1cc(Nc2nccc(-c3[nH]c(C(C)(C)C)nc3-c3nc(OC)c(N)nc3C)n2)ccn1` [Compound 253, 4-(4-(5-amino-6-methoxy-3-methylpyrazin-2-yl)-2-tert-butyl-1H-imidazol-5-yl)-N-(2-methoxypyridin-4-yl)pyrimidin-2-amine], the IC50 was found to be 6.2 nM.

Regarding `COc1nc(-c2nc(C(C)(C)C)[nH]c2-c2ccnc(NC[C@H](C)NC(=O)[C@H](C)OC)n2)c(C)nc1N` [Compound 254, (S)-N-((S)-1-(4-(4-(5-amino-6-methoxy-3-methylpyrazin-2-yl)-2-tert-butyl-1H-imidazol-5-yl)pyrimidin-2-ylamino)propan-2-yl)-2-methoxypropanamide], the concentration for half-maximal inhibition (IC50) amounted to 3.8 nM.

In the case of `COCC(=O)N[C@@H](C)CNc1nccc(-c2[nH]c(C3CC3)nc2-c2nc(OC)c(N)nc2C)n1` [Compound 255, (S)-N-(1-(4-(4-(5-amino-6-methoxy-3-methylpyrazin-2-yl)-2-cyclopropyl-1H-imidazol-5-yl)pyrimidin-2-ylamino)propan-2-yl)-2-methoxyacetamide], the half-inhibitory concentration (IC50) came to 3.9 nM.

For the molecule `CCOC(=O)N[C@@H](C)CNc1nccc(-c2[nH]c(C(C)(C)C)nc2-c2nc(OC)c(N)nc2C)n1` [Compound 256, (S)-ethyl 1-(4-(4-(5-amino-6-methoxy-3-methylpyrazin-2-yl)-2-tert-butyl-1H-imidazol-5-yl)pyrimidin-2-ylamino)propan-2-ylcarbamate], the IC50 was found to be 1.1 nM.

In the case of `COc1nc(-c2nc(C(C)(C)C)[nH]c2-c2ccnc(NC[C@H](C)NC(=O)OC(C)C)n2)c(C)nc1N` [Compound 257, (S)-isopropyl 1-(4-(4-(5-amino-6-methoxy-3-methylpyrazin-2-yl)-2-tert-butyl-1H-imidazol-5-yl)pyrimidin-2-ylamino)propan-2-ylcarbamate], the IC50 stood at 1.2 nM.

With `COc1nc(-c2nc(C(C)(C)C)[nH]c2-c2ccnc(NC[C@H](C)NC(=O)OCC(C)C)n2)c(C)nc1N` [Compound 258, (S)-isobutyl 1-(4-(4-(5-amino-6-methoxy-3-methylpyrazin-2-yl)-2-tert-butyl-1H-imidazol-5-yl)pyrimidin-2-ylamino)propan-2-ylcarbamate], the IC50 worked out at 1.1 nM.

On to `COc1nc(-c2nc(C(C)(C)C)[nH]c2-c2ccnc(NC[C@H](C)NC(=O)OCC(C)(C)C)n2)c(C)nc1N` [Compound 259, (S)-neopentyl 1-(4-(4-(5-amino-6-methoxy-3-methylpyrazin-2-yl)-2-tert-butyl-1H-imidazol-5-yl)pyrimidin-2-ylamino)propan-2-ylcarbamate], for which the IC50 was determined as 1.5 nM.

Consider `COC(=O)N[C@@H](C)CNc1nccc(-c2[nH]c(C(C)(C)C)nc2-c2nc(OC)c(N)nc2C)n1` [Compound 260, (S)-methyl 1-(4-(4-(5-amino-6-methoxy-3-methylpyrazin-2-yl)-2-tert-butyl-1H-imidazol-5-yl)pyrimidin-2-ylamino)propan-2-ylcarbamate], for which the IC50 amounted to 1 nM.

In the case of `[2H]C([2H])([2H])Oc1nc(-c2nc(C(C)(C)C)[nH]c2-c2ccnc(NC[C@H](C)NC(=O)OC)n2)cnc1N` [Compound 261, (S)-methyl 1-(4-(4-(5-amino-6-(D3-methoxy)pyrazin-2-yl)-2-tert-butyl-1H-imidazol-5-yl)pyrimidin-2-ylamino)propan-2-ylcarbamate], the IC50 came out at 0.1 nM.

With `COC(=O)N[C@@H](C)CNc1nccc(-c2nc(C(C)(C)C)[nH]c2-c2cnc3[nH]ccc3c2)n1` [Compound 262, (S)-methyl 1-(4-(2-tert-butyl-5-(1H-pyrrolo[2,3-b]pyridin-5-yl)-1H-imidazol-4-yl)pyrimidin-2-ylamino)propan-2-ylcarbamate], the concentration for half-maximal inhibition (IC50) was determined as 0.2 nM.

For the molecule `COC(=O)N[C@@H](C)CNc1nccc(-c2nc(C(C)(C)C)[nH]c2-c2cnc3[nH]cc(C(F)(F)F)c3c2)n1` [Compound 263, (S)-methyl 1-(4-(2-tert-butyl-5-(3-(trifluoromethyl)-1H-pyrrolo[2,3-b]pyridin-5-yl)-1H-imidazol-4-yl)pyrimidin-2-ylamino)propan-2-ylcarbamate], the half-maximal inhibitory concentration (IC50) was determined as 65 nM.

In the case of `CCS(=O)(=O)N1CCN(c2nc(-c3ccncc3)c(-c3cnc(N)c(OC)c3)[nH]2)CC1` [Compound 264, 5-(2-(4-(ethylsulfonyl)piperazin-1-yl)-4-(pyridin-4-yl)-1H-imidazol-5-yl)-3-methoxypyridin-2-amine], the IC50 worked out at 40 nM.

With `COC(=O)N[C@@H](C)CNc1nccc(-c2[nH]c(C(C)(C)C)nc2-c2cnc(N)c(OC(F)F)c2)n1` [Compound 265, (S)-methyl 1-(4-(4-(6-amino-5-(difluoromethoxy)pyridin-3-yl)-2-tert-butyl-1H-imidazol-5-yl)pyrimidin-2-ylamino)propan-2-ylcarbamate], the concentration for half-maximal inhibition (IC50) amounted to 0.01 nM.

Consider `COc1cc(-c2nc(-c3ccccc3)[nH]c2-c2ccncc2)cnc1N` [Example 1, 3-Methoxy-5-(2-phenyl-5-(pyridine-4-yl)-1H-imidazol-4-yl)pyridine-2-amine], for which the IC50 worked out at 1 nM.

In the case of `COc1cc(-c2[nH]c(-c3ccc(C(F)(F)F)cc3)nc2-c2ccncc2)cnc1N` [Example 2, 3-methoxy-5-(5-(pyridine-4-yl)-2-(4-(trifluoromethyl)phenyl)-1H-imidazol-4-yl)pyridin-2-amine], the IC50 worked out at 0.4 nM.

Consider `COc1cc(-c2nc(-c3ccccc3)[nH]c2-c2ccnc(NCCO)n2)cnc1N` [Example 3, 2-(4-(4-(6-amino-5-methoxypyridin-3-yl)-2-phenyl-1H-imidazol-5-yl)pyrimidin-2-ylamino)ethanol], for which the 50% inhibitory concentration (IC50) is 1.3 nM.

For `COCC(=O)N[C@@H](C)CNc1nccc(-c2[nH]c(-c3ccc(C(F)(F)F)cc3)nc2-c2cnc(N)c(OC)n2)n1` [Example 4, (S)—N-(1-(4-(4-(5-amino-6-methoxypyrazin-2-yl)-2-(4-(trifluoromethyl)phenyl)-1H-imidazol-5-yl)pyrimidin-2-ylamino)propan-2-yl)-2-methoxyacetamide], the IC50 turned out to be 0.1 nM.

As to `COCC(=O)N[C@@H](C)CNc1nccc(-c2[nH]c(-c3ccc(F)cc3)nc2-c2cnc(N)c(OC)n2)n1` [Example 5, (S)—N-(1-(4-(4-(5-amino-6-methoxylpyrazin-2-yl)-2-(4-fluorophenyl)-1H-imidazol-5-yl)pyrimidin-2-ylamino)propan-2-yl)-2-methoxyacetamide], the IC50 was determined as 0.2 nM.

Take `COc1cc(-c2nc(C(C)(C)C)[nH]c2-c2ccnc(NC[C@H](C)O)n2)cnc1N` [Example 6]: the IC50 is 0.3 nM.

As to `COCC(=O)N[C@@H](C)CNc1nccc(-c2[nH]c(C(C)(C)C)nc2-c2cnc(N)c(OC)n2)n1` [Example 7, (S)—N-(1-(4-(4-(5-amino-6-methoxypyrazin-2-yl)-2-tert-butyl-1H-imidazol-5-yl)pyrimidin-2-ylamino)propan-2-yl)-2-methoxyacetamide], the IC50 is 0.3 nM.

For `COC(=O)N[C@@H](C)CNc1nccc(-c2[nH]c(C(C)(C)C)nc2-c2cnc(N)c(OC)n2)n1` [Example 8, (S)-methyl 1-(4-(4-(5-amino-6-methoxypyrazin-2-yl)-2-tert-butyl-1H-imidazol-5-yl)pyrimidin-2-ylamino)propan-2-ylcarbamate], the IC50 worked out at 0.1 nM.

Turning to `COc1cc(Nc2nccc(-c3[nH]c(C(C)(C)C)nc3-c3cnc(N)c(OC)n3)n2)ccn1` [Example 9, 4-(4-(5-amino-6-methoxypyrazin-2-yl)-2-tert-butyl-1H-imidazol-5-yl)-N-(2-methoxypyridin-4-yl)pyrimidin-2-amine], the IC50 turned out to be 0.1 nM.

Regarding `COc1cc(-c2[nH]c(-c3ccc(F)cc3)nc2C2CCOCC2)cnc1N` [Example 10, 5-(2-(4-fluorophenyl)-5-(tetrahydro-2H-pyran-4-yl)-1H-imidazol-4-yl)-3-methoxypyridin-2-amine], the concentration for half-maximal inhibition (IC50) was found to be 405 nM.

Consider `COc1cc(-c2[nH]c(-c3ccc(F)cc3)nc2-c2cncs2)cnc1N` [Example 11, 5-(2-(4-fluorophenyl)-5-(thiazol-5-yl)-1H-imidazol-4-yl)-3-methoxypyridin-2-amine], for which the half-inhibitory concentration (IC50) came out at 36.5 nM.

On to `Fc1ccc(-c2nc(-c3ccncc3)c(-c3cnc4[nH]cc(Cl)c4c3)[nH]2)cc1` [Example 12, 3-chloro-5-(2-(4-fluorophenyl)-4-(pyridine-4-yl)-1H-imidazol-5-yl)-1H-pyrrolo[2,3-b]pyridine], for which the half-maximal inhibitory concentration (IC50) was found to be 2 nM.

On to `COc1cc(-c2nc(-c3ccc(F)cc3)oc2-c2ccncc2)cnc1N` [Example 13, 5-(2-(4-fluorophenyl)-5-(pyridin-4-yl)oxazol-4-yl)-3-methoxypyridin-2-amine], for which the concentration for half-maximal inhibition (IC50) was determined as 0.5 nM.

`COCC(=O)N[C@@H](C)CNc1nccc(-c2oc(-c3ccc(C(F)(F)F)cc3)nc2-c2cnc(N)c(OC)c2)n1` [Example 14]: the half-maximal inhibitory concentration (IC50) is 3 nM.

On to `COc1cc(-c2sc(-c3ccccc3)nc2-c2ccncc2)cnc1N` [Example 15, 3-methoxy-5-(2-phenyl-4-(pyridine-4-yl)thiazol-5-yl)pyridine-2-amine], for which the half-maximal inhibitory concentration (IC50) was determined as 1.9 nM.

As to `COc1cc(-c2nc(-c3ccc(F)cc3)sc2-c2ccncc2)cnc1N` [Example 16, 5-(2-(4-fluorophenyl)-5-(pyridin-4-yl)thiazol-4-yl)-3-methoxypyridin-2-amine], the IC50 was 14.3 nM.

Values taken from patent US20100003246A1, “Novel heterocyclic compounds and uses therof” (priority 2008, published 2010).
